Entries after “also recorded” stand apart in the source; their conditions may differ. Like-named read-outs stand apart in the source and are kept apart here.
What was measured:
[1] = set-up: species or system beagle dogs; conditions: male, beagle, dog, in vivo
Method: Two groups of three male beagle dogs weighing 9.0-10.7 kg and aged 8-30 months were fasted overnight before being administered the test article, MGBG, as either a single bolus intravenous dose of 1 mg/kg (Group 1) or as a single oral gavage dose of 10 mg/kg (Group 2). Dose formulation analysis verified administered dose solutions as within 17% of targeted concentrations of 1 and 10 mg/kg for Groups 1 and 2, respectively.
Blood samples (approximately 2.0 mL) were collected for plasma MGBG concentration measurement from all intravenously dosed animals prior to dosing and at approximately T=0.083 (5 min), 0.25 (15 min), 0.5 (30 min), 1, 2, 4, 8, and 24 hours after dosing. A similar procedure was used with orally dosed animals was used, except that collection took place at T=1, 2, 4, 8, 12, 24, and 36 hours after dosing. The samples were centrifuged under refrigerated conditions following completion of sample collection at each interval. The resulting plasma was separated and stored frozen at approximately −70° C. until analysis.

[2] = test system: MOG-induced experimental autoimmune encephalomyelitis (EAE); assay: Third MOG EAE protocol (MGBG, fingolimod and combination); format: in vivo, C57BL/6 mice; conditions: MGBG 30 mpk twice-daily, fingolimod 0.1 mpk once-daily, or both
Text: An experimental murine model of multiple sclerosis employing a myelin oligodendrocyte glycoprotein (MOG) peptide to induce experimental autoimmune encephalomyelitis (EAE) was employed to determine the efficacy of MGBG in preventing and treating that disease. Because of its many similarities to MS, EAE is commonly used to study pathogenesis of autoimmunity, CNS inflammation, demyelination, cell trafficking, and tolerance induction. EAE is characterized by paralysis (in some models the paralysis is remitting-relapsing), CNS inflammation and demyelination. EAE is mediated primarily by dendritic cells, myelin-specific T cells (e.g. Th1 and Th17), and M1 macrophages. B cells may also play a role in some models of EAE. Body weight also tracks disease progression. EAE is induced in C57BL/6 mice by immunization with MOG35-55 or MOG1-125 in CFA emulsion followed by administration of pertussis toxin (PTX) in PBS. The emulsion provides antigen which initiates expansion and differentiation of MOG-specific autoimmune T cells. PTX enhances EAE development by providing additional adjuvant and facilitating entrance of autoimmune T cells into the CNS.
Chronic EAE develops in C57BL/6 mice after immunization with an emulsion of MOG35-55/CFA or MOG1-125/CFA followed by injection of pertussis toxin. This model is used to test the potential of compounds to prevent or mitigate EAE disease. It can be run with the compound dosed from the time of immunization (prophylactic treatment), or with the aim of reversing the course of disease and facilitating recovery by dosing the compound from the time of EAE onset (therapeutic treatment). The model uses female C57BL/6 mice of age 10 to 14 weeks at the start of the study. Typically, EAE develops 8-18 days after immunization. EAE development is usually followed for 4 weeks (28 days) after immunization.
Clinically, EAE progression is scored on a scale of 0 to 5, wherein each score represents the following clinical observations:
Inflammatory foci of approximately 20 cells were counted in each H&E stained section. When inflammatory infiltrates consisted of more than 20 cells, an estimate was made of how many foci of 20 cells were present.
The demyelination score represents an estimate of demyelinated area for each section as follows:
Ten week old female C57BL/6 mice weighing 18-23 g (Taconic Farms) were divided into four groups: mock immunized (n=3) and three MOG-immunized groups receiving MGBG at 30 mpk BID (as the di-HCl monohydrate with a correction factor of 1.49), […] dose, or 0.9% saline vehicle BID (n=12 each). […]

CC(/C=N/NC(=N)N)=N\NC(=N)N [MGBG, 1,1′ [methylethanediylidene]dinitrilodiguanidine]
Clobs ([1]; iv, 1 mg/kg): 13.7 mL/min/kg
VSSobs ([1]; iv, 1 mg/kg): 14.6 L/kg
Clobs ([1]; po, 10 mg/kg): 8.29 mL/min/kg
Vd ([1]; po, 10 mg/kg): 14.6 L/kg
clinical scores / development of EAE ([2]; third 28-day study): suppressed EAE comparably to 0.1 mpk fingolimod; also recorded: equivalently efficacious in preventing EAE development
cellular apoptosis in spinal cord ([2]; third study): equivalently efficacious in reducing apoptosis
number of inflammatory foci in spinal cord ([2]; third study): equivalently efficacious in reducing the number of inflammatory foci
spinal cord demyelination ([2]; third study): equivalently efficacious in reducing demyelination

Reference: US10085955B2, “Methods and compositions for treatment of demyelinating diseases” (Pathologica LLC, priority 2013, dated 2018)
